Experimental data: US11712434B2, “Compound having anti-cancer effect, and preparation method therefor and use thereof” (3D MEDICINES (BEIJING) CO., LTD., priority 2016, dated 2023)

Tests used:
Assay in all cases: Cell proliferation assay (Alamar Blue)
Format in all cases: cell-based
HUH1 = HUH1 liver cancer cell line, 6 days culture
Procedure, shortened: (§1)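 Plated at 500~1×10^4 cells/well and allowed 4 h to settle before dosing. Compounds were tested at nine concentrations, highest 100 or 30 μM, in duplicate, then cultured 6 days. Resazurin conversion was read fluorimetrically.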

NCI-H526 = NCI-H526 tumor cell line, 6 days culture
Procedure, shortened: as §1

DU145 = DU145 tumor cell line, 6 days culture
Procedure, shortened: as §1

SW620 = SW620 tumor cell line, 6 days culture
Procedure, shortened: as §1

SNU739 = SNU739 liver cancer cell line, 6 days culture
Procedure, shortened: as §1

K562 = K562 tumor cell line, 6 days culture
Procedure, shortened: as §1

NCI-H1648 = NCI-H1648 tumor cell line, 6 days culture
Procedure, shortened: as §1

HT55 = HT55 tumor cell line, 6 days culture
Procedure, shortened: as §1

NCI-H2170 = NCI-H2170 tumor cell line, 6 days culture
Procedure, shortened: as §1

Hep3B2.1-7 = Hep3B2.1-7 liver cancer cell line, 6 days culture
Procedure, shortened: as §1

KASUMI-1 = KASUMI-1 (leukemia cells), 6 days culture
Procedure, shortened: as §1

HuTu80 = HuTu80 tumor cell line, 6 days culture
Procedure, shortened: as §1

Alexander cells = Alexander cells liver cancer cell line, 6 days culture
Procedure, shortened: as §1

DLD1 = DLD1 tumor cell line, 6 days culture
Procedure, shortened: as §1

NCI-H661 = NCI-H661 tumor cell line, 6 days culture
Procedure, shortened: as §1

MDA-MB-231 = MDA-MB-231 tumor cell line, 6 days culture
Procedure, shortened: as §1

HLE = HLE liver cancer cell line, 6 days culture
Procedure, shortened: as §1

JHH7 = JHH7 liver cancer cell line, 6 days culture
Procedure, shortened: as §1

MFM-223 = MFM-223 tumor cell line, 6 days culture
Procedure, shortened: as §1

SNU886 = SNU886 liver cancer cell line, 6 days culture
Procedure, shortened: as §1

CCRF-CEM = CCRF-CEM tumor cell line, 6 days culture
Procedure, shortened: as §1

T.T = T.T tumor cell line, 6 days culture
Procedure, shortened: as §1

LC-2-ad = LC-2-ad tumor cell line, 6 days culture
Procedure, shortened: as §1

HUH7 = HUH7 liver cancer cell line, 6 days culture
Procedure, shortened: as §1

HCCLM3 = HCCLM3 tumor cell line, 6 days culture
Procedure, shortened: as §1

AN3CA = AN3CA tumor cell line, 6 days culture
Procedure, shortened: as §1

HEPG2 = HEPG2 liver cancer cell line, 6 days culture
Procedure, shortened: as §1

Cc1ccc(F)c(NC(=O)Nc2ccc(-c3cccc4[nH]nc(NC(=O)C[C@H](N)C(=O)N[C@@H](CCC(=O)O)C(=O)O)c34)cc2)c1 [Compound 1]
IC50 (HUH1; Homo sapiens, HuH-1, 144 h): 4.67 µM
IC50 (NCI-H526; Homo sapiens, 144 h): 7.45 µM
IC50 (DU145; Homo sapiens, DU-145, 144 h): 4.25 µM
IC50 (SW620; Homo sapiens, SW-620, 144 h): 3.96 µM
IC50 (SNU739; SNU-739, 144 h): 7.63 µM
IC50 (K562; Homo sapiens, 144 h): 17.2 µM
IC50 (NCI-H1648; Homo sapiens, 144 h): 10.1 µM
IC50 (HT55; Homo sapiens, 144 h): 24.7 µM
IC50 (NCI-H2170; Homo sapiens, 144 h): 5.32 µM
IC50 (Hep3B2.1-7; 144 h): 3.29 µM
IC50 (KASUMI-1; Homo sapiens, 144 h): 0.02 µM
IC50 (HuTu80; Homo sapiens, 144 h): 1.98 µM
IC50 (Alexander cells; 144 h): 4.01 µM
IC50 (DLD1; Homo sapiens, DLD-1, 144 h): 18.5 µM
IC50 (NCI-H661; Homo sapiens, 144 h): 20.2 µM
IC50 (MDA-MB-231; Homo sapiens, 144 h): 7.61 µM
IC50 (HLE; Homo sapiens, 144 h): 2.84 µM
IC50 (JHH7; 144 h): 1.54 µM
IC50 (MFM-223; Homo sapiens, 144 h): 3.59 µM
IC50 (SNU886; SNU-886, 144 h): 7.24 µM
IC50 (CCRF-CEM; Homo sapiens, 144 h): 6.14 µM
IC50 (T.T; Homo sapiens, TT, 144 h): 9.24 µM
IC50 (LC-2-ad; Homo sapiens, 144 h): 3.52 µM
IC50 (HUH7; Homo sapiens, Huh-7, 144 h): 2.89 µM
IC50 (HCCLM3; Homo sapiens, 144 h): 8.24 µM
IC50 (AN3CA; Homo sapiens, AN3-CA, 144 h): 0.34 µM
IC50 (HEPG2; Homo sapiens, 144 h): 1.35 µM

Cc1ccc(F)c(NC(=O)Nc2ccc(-c3cccc4[nH]nc(NC(=O)CCCCCNC(=O)C[C@H](N)C(=O)O)c34)cc2)c1 [Compound 11]
IC50 (HUH1): > 100 µM
IC50 (NCI-H526): > 100 µM
IC50 (DU145): > 100 µM
IC50 (SW620): > 100 µM
IC50 (SNU739): > 100 µM
IC50 (K562): > 100 µM
IC50 (NCI-H1648): > 100 µM
IC50 (HT55): > 100 µM
IC50 (NCI-H2170): > 100 µM
IC50 (Hep3B2.1-7): > 100 µM
IC50 (KASUMI-1): 1.09 µM
IC50 (HuTu80): 63.1 µM
IC50 (Alexander cells): > 100 µM
IC50 (DLD1): > 100 µM
IC50 (NCI-H661): > 100 µM
IC50 (MDA-MB-231): > 100 µM
IC50 (HLE): > 100 µM
IC50 (JHH7): > 100 µM
IC50 (MFM-223): > 100 µM
IC50 (SNU886): > 100 µM
IC50 (CCRF-CEM): > 100 µM
IC50 (T.T): > 100 µM
IC50 (LC-2-ad): > 100 µM
IC50 (HUH7): > 100 µM
IC50 (HCCLM3): > 100 µM
IC50 (AN3CA): 17.4 µM
IC50 (HEPG2): 30.1 µM

Cc1ccc(F)c(NC(=O)Nc2ccc(-c3cccc4[nH]nc(NC(=O)C[C@H](N)C(=O)O)c34)cc2)c1 [Compound 10]
IC50 (HUH1; Homo sapiens, HuH-1, 144 h): 3.88 µM
IC50 (NCI-H526; Homo sapiens, 144 h): 6.93 µM
IC50 (DU145; Homo sapiens, DU-145, 144 h): 3.62 µM
IC50 (SW620; Homo sapiens, SW-620, 144 h): 3.46 µM
IC50 (SNU739; SNU-739, 144 h): 5.29 µM
IC50 (K562; Homo sapiens, 144 h): 14.6 µM
IC50 (NCI-H1648; Homo sapiens, 144 h): 7.42 µM
IC50 (HT55; Homo sapiens, 144 h): 18.5 µM
IC50 (NCI-H2170; Homo sapiens, 144 h): 4.28 µM
IC50 (Hep3B2.1-7; 144 h): 2.43 µM
IC50 (KASUMI-1; Homo sapiens, 144 h): 0.01 µM
IC50 (HuTu80; Homo sapiens, 144 h): 1.84 µM
IC50 (Alexander cells; 144 h): 3.79 µM
IC50 (DLD1; Homo sapiens, DLD-1, 144 h): 10.5 µM
IC50 (NCI-H661; Homo sapiens, 144 h): 18 µM
IC50 (MDA-MB-231; Homo sapiens, 144 h): 4.63 µM
IC50 (HLE; Homo sapiens, 144 h): 2.16 µM
IC50 (JHH7; 144 h): 1.36 µM
IC50 (MFM-223; Homo sapiens, 144 h): 2.64 µM
IC50 (SNU886; SNU-886, 144 h): 6.19 µM
IC50 (CCRF-CEM; Homo sapiens, 144 h): 5.46 µM
IC50 (T.T; Homo sapiens, TT, 144 h): 7.38 µM
IC50 (LC-2-ad; Homo sapiens, 144 h): 3.33 µM
IC50 (HUH7; Homo sapiens, Huh-7, 144 h): 2.24 µM
IC50 (HCCLM3; Homo sapiens, 144 h): 7.76 µM
IC50 (AN3CA; Homo sapiens, AN3-CA, 144 h): 0.27 µM
IC50 (HEPG2; Homo sapiens, 144 h): 0.97 µM

Cc1ccc(F)c(NC(=O)Nc2ccc(-c3cccc4[nH]nc(NC(=O)C[C@H](N)C(=O)N[C@@H](CCC(=O)N[C@@H](CCC(=O)N[C@@H](CCC(=O)N[C@@H](CCC(=O)O)C(=O)O)C(=O)O)C(=O)O)C(=O)O)c34)cc2)c1 [Compound 2]
IC50 (HUH1; Homo sapiens, HuH-1, 144 h): 7.26 µM
IC50 (NCI-H526; Homo sapiens, 144 h): 11.3 µM
IC50 (DU145; Homo sapiens, DU-145, 144 h): 9.34 µM
IC50 (SW620; Homo sapiens, SW-620, 144 h): 6.81 µM
IC50 (SNU739; SNU-739, 144 h): 11.3 µM
IC50 (K562; Homo sapiens, 144 h): 29.5 µM
IC50 (NCI-H1648; Homo sapiens, 144 h): 21.5 µM
IC50 (HT55; Homo sapiens, 144 h): 40.1 µM
IC50 (NCI-H2170; Homo sapiens, 144 h): 7.69 µM
IC50 (Hep3B2.1-7; 144 h): 6.32 µM
IC50 (KASUMI-1; Homo sapiens, 144 h): 0.05 µM
IC50 (HuTu80; Homo sapiens, 144 h): 4.26 µM
IC50 (Alexander cells; 144 h): 7.11 µM
IC50 (DLD1; Homo sapiens, DLD-1, 144 h): 29.2 µM
IC50 (NCI-H661; Homo sapiens, 144 h): 36.8 µM
IC50 (MDA-MB-231; Homo sapiens, 144 h): 12.4 µM
IC50 (HLE; Homo sapiens, 144 h): 6.47 µM
IC50 (JHH7; 144 h): 4.26 µM
IC50 (MFM-223; Homo sapiens, 144 h): 6.93 µM
IC50 (SNU886; SNU-886, 144 h): 16.9 µM
IC50 (CCRF-CEM; Homo sapiens, 144 h): 10.4 µM
IC50 (T.T; Homo sapiens, TT, 144 h): 16.9 µM
IC50 (LC-2-ad; Homo sapiens, 144 h): 6.37 µM
IC50 (HUH7; Homo sapiens, Huh-7, 144 h): 6.33 µM
IC50 (HCCLM3; Homo sapiens, 144 h): 12 µM
IC50 (AN3CA; Homo sapiens, AN3-CA, 144 h): 0.73 µM
IC50 (HEPG2; Homo sapiens, 144 h): 3.86 µM

Cc1ccc(F)c(NC(=O)Nc2ccc(-c3cccc4[nH]nc(NC(=O)CCCCCCCCCCCNC(=O)C[C@H](N)C(=O)N[C@@H](CCC(=O)O)C(=O)O)c34)cc2)c1 [Compound 7]
IC50 (HUH1): > 100 µM
IC50 (NCI-H526): > 100 µM
IC50 (DU145): > 100 µM
IC50 (SW620): 56.3 µM
IC50 (SNU739): > 100 µM
IC50 (K562): > 100 µM
IC50 (NCI-H1648): > 100 µM
IC50 (HT55): > 100 µM
IC50 (NCI-H2170): 48 µM
IC50 (Hep3B2.1-7): 40.4 µM
IC50 (KASUMI-1): 0.23 µM
IC50 (HuTu80): 27.7 µM
IC50 (Alexander cells): > 100 µM
IC50 (DLD1): > 100 µM
IC50 (NCI-H661): > 100 µM
IC50 (MDA-MB-231): > 100 µM
IC50 (HLE): 88.3 µM
IC50 (JHH7): 63.4 µM
IC50 (MFM-223): 88.3 µM
IC50 (SNU886): 75.2 µM
IC50 (CCRF-CEM): > 100 µM
IC50 (T.T): > 100 µM
IC50 (LC-2-ad): 46.4 µM
IC50 (HUH7): 42.2 µM
IC50 (HCCLM3): > 100 µM
IC50 (AN3CA): 3.84 µM
IC50 (HEPG2): 9.53 µM
